# Results from the supplement of paper PMC10307832.
# Tests used:
# Test in all cases: relative viability (nuclei count vs DMSO), 5 days (fraction); higher = more cells survive
# [1] = compound: CN[C@@H]1C[C@H]2O[C@@](C)([C@@H]1OC)n1c3ccccc3c3c4c(c5c6ccccc6n2c5c31)C(=O)NC4 [Staurosporine] + Nc1nc2[nH]cc(CCc3ccc(C(=O)N[C@@H](CCC(=O)O)C(=O)O)cc3)c2c(=O)[nH]1 [Pemetrexed] (partner 0.2 µM)
# Outline: (§1)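 Lung cancer cell lines in 1536-well plates were dosed by pin tool the day after seeding, either with one drug alone or with a fixed anchor-drug dose plus five library-drug doses (not always all listed) in √10 steps. After 5 days, cells were fixed and their nuclei stained in one step (final 0.05% Triton X-100, 1% formaldehyde, 1 ug/ml Hoechst), then counted on 4× images. Relative viability is the nuclei count in treated wells divided by that in vehicle wells. Values are medians of duplicate plates.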
# Sulindac + Luminespib = compound: CC1=C(CC(=O)O)c2cc(F)ccc2/C1=C\c1ccc([S+](C)[O-])cc1 [Sulindac] + CCNC(=O)c1noc(-c2cc(C(C)C)c(O)cc2O)c1-c1ccc(CN2CCOCC2)cc1 [Luminespib] (partner 0.01 µM)
# Outline: as §1
# [2] = compound: O=c1[nH]cc(F)c(=O)[nH]1 [5-Fluorouracil] + Nc1ncn([C@H]2C[C@H](O)[C@@H](CO)O2)c(=O)n1 [Decitabine] (partner 2 µM)
# Outline: as §1
# [3] = compound: CN[C@@H]1C[C@H]2O[C@@](C)([C@@H]1OC)n1c3ccccc3c3c4c(c5c6ccccc6n2c5c31)C(=O)NC4 [Staurosporine] + CS(=O)(=O)CCNCc1ccc(-c2ccc3ncnc(Nc4ccc(OCc5cccc(F)c5)c(Cl)c4)c3c2)o1 [Lapatinib] (partner 2 µM)
# Outline: as §1
cell line,measurement,setting,value
UMC-11,relative viability,[1]; first compound 0.005 µM,0.695
same,relative viability,[1]; first compound 0.01581 µM,0.472
same,relative viability,[1]; first compound 0.05 µM,0.387
same,relative viability,[1]; first compound 0.1581 µM,0.104
same,relative viability,[1]; first compound 0.5 µM,0.0932
same,relative viability,Sulindac + Luminespib; first compound 0.08 µM,1.27
same,relative viability,Sulindac + Luminespib; first compound 0.253 µM,1.12
same,relative viability,Sulindac + Luminespib; first compound 0.8 µM,0.717
same,relative viability,Sulindac + Luminespib; first compound 2.53 µM,1.01
same,relative viability,Sulindac + Luminespib; first compound 8 µM,1.13
same,relative viability,[2]; first compound 0.02 µM,0.593
same,relative viability,[2]; first compound 0.2 µM,0.565
same,relative viability,[2]; first compound 0.6325 µM,0.497
same,relative viability,[3]; first compound 0.005 µM,1.14
same,relative viability,[3]; first compound 0.01581 µM,0.158
same,relative viability,[3]; first compound 0.05 µM,0.408
same,relative viability,[3]; first compound 0.1581 µM,0.141
same,relative viability,[3]; first compound 0.5 µM,0.0855
